Test results taken from US20220220095A1, “N-((HETEROARYL)METHYL)-1-TOSYL-1H-PYRAZOLE-3-CARBOXAMIDE DERIVATIVES AS Kv3 POTASSIUM CHANNEL ACTIVATORS FOR TREATING NEUROLOGICAL AND [sequence] DISORDERS” (H. Lundbeck A/S, priority 2019, published 2022).

Target: T1, hKv3.1b (Homo sapiens, UniProt P48547)
T1 construct: expressed in transfected cells
T1 sequence (P48547 1-585 isoform P48547-2): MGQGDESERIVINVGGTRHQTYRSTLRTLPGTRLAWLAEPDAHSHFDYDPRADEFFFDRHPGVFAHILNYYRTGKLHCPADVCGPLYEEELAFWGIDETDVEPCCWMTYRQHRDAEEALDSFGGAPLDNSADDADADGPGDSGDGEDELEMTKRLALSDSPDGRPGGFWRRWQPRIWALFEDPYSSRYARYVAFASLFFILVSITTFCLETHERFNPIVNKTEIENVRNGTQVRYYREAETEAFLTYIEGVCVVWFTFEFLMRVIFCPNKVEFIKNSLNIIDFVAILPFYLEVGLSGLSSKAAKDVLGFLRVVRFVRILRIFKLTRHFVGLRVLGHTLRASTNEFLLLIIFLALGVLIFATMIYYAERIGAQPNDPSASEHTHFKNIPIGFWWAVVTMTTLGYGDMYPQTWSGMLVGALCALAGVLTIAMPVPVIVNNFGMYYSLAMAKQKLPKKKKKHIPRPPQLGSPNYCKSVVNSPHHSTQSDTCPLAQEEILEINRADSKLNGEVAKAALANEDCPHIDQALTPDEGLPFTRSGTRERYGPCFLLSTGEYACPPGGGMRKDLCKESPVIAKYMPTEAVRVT
Test: Automated whole-cell patch-clamp (QPatch-16x) on HEK-293 cells stably expressing hKv3.1b: shift of voltage threshold for channel activation
Assay type: cell-based
Settings: HEK-293 hKv3.1b; for ECdelta5mV: concentration needed to shift the threshold 5 mV, read out from fitted concentration response curve; for Max Delta threshold: maximum absolute shift of activation threshold to more hyperpolarized potentials at the tested concentrations (0.37, 1.11, 3.33, 10, 30 μM)
Experimental: HEK-293 cells stably expressing hKv3.1b was used for the experiments. Cells were cultured in DMEM medium supplemented with 10% Fetal Bovine Serum, 100 ug/mL Geneticidin and 100 u/mL Penicillin/Streptomycin (all from Gibco). Cells were grown to 80-90% confluency at 37° C. and 5% CO2. On the day of the experiment the cells were detached from the tissue culture flasks by Detachin and resuspended in serum free medium containing 25 mM HEPES and transferred to the cell hotel of the QPatch. The cells were used for experiments 0-5 hours after detachment.
Patch-clamp recordings were performed using the automated recording system QPatch-16x (Sophion Bioscience, Denmark). Cells were centrifuged, SFM removed and the cells were resuspended in extracellular buffer containing (in mM): 145 NaCl, 4 KCl, 1 MgCl2, 2 CaCl2, 10 HEPES and 10 glucose (added fresh on the day of experiment); pH 7.4 adjusted with NaOH, 305 mOsm adjusted with sucrose.
Single cell whole-cell recordings were carried out using an intracellular solution containing (in mM): 120 KCl, 32.25/10 KOH/EGTA, 5.374 CaCl2, 1.75 MgCl2, 10 HEPES, 4 Na2ATP (added fresh on the day), pH 7.2 adjusted with KOH, […] adjusted with sucrose. Cell membrane potentials were held at −80 mV and currents were evoked by voltage steps (200 ms duration) from −70 mV to +10 mV (in 10 mV increments).
Leak subtraction protocol was applied at −33% of the sweep amplitude, and serial resistance values were constantly monitored.
Any cell where serial resistance exceeded 25 MOhm, membrane resistance less than 200 MOhm or current size at −10 mV less than 200 pA was eliminated from the subsequent analysis.
Data analysis was performed using Sophion's QPatch assay software in combination with Microsoft Excel™ (Redmond, Wash., USA).
Current voltage relationships were plotted from the peak current at the individual voltage steps normalized to the vehicle addition at 10 mV. The voltage threshold for channel activation was defined as 5% activation of the peak current at 10 mV in presence of vehicle. The activity of the compounds was described as the ability to shift this current voltage relationship to more hyperpolarized potentials and is given as the maximum absolute shift possible at the tested concentrations (0.37, 1.11, 3.33, 10, 30 μM). Concentration response curves were plotted from the threshold shift at the individual concentrations and were fitted excel fit model 205 sigmodal dose-response model (fit=A+((B−A)/1+((C/x)^D)))), where A is the minimum value, B the maximum value, C the EC50 value and D the slope of the curve. The concentration needed to shift the threshold 5 mV was readout from this curve (ECdelta 5 mV).

## COc1ccc(S(=O)(=O)n2ccc(C(=O)NCc3cc(C)no3)n2)cc1 [Compound 38, 1-(4-methoxybenzene-1-sulfonyl)-N-[(3-methyl-1,2-oxazol-5-yl)methyl]-1H-pyrazole-3-carboxamide]
  ECdelta5mV: 1100 nM
  Max Delta threshold: 21 mV

## Cc1ccc(S(=O)(=O)n2ccc(C(=O)NCc3ncc(C)o3)n2)cc1 [Compound 30, 1-(4-methylbenzene-1-sulfonyl)-N-[(5-methyl-1,3-oxazol-2-yl)methyl]-1H-pyrazole-3-carboxamide]
  ECdelta5mV: 3400 nM
  Max Delta threshold: 15 mV

## Cc1cnc(CNC(=O)c2ccn(S(=O)(=O)c3ccc(Cl)cc3)n2)cn1 [Compound 76, 1-(4-chlorophenyl)sulfonyl-N-[(5-methylpyrazin-2-yl)methyl]pyrazole-3-carboxamide]
  ECdelta5mV: 1500 nM
  Max Delta threshold: 25 mV

## Cc1cnc(CNC(=O)c2ccn(S(=O)(=O)c3cc(C)c(F)c(C)c3)n2)cn1 [Compound 81, 1-(4-fluoro-3,5-dimethyl-phenyl)sulfonyl-N-[(5-methylpyrazin-2-yl)methyl]pyrazole-3-carboxamide]
  ECdelta5mV: 3000 nM
  Max Delta threshold: 17 mV

## COc1ccc(S(=O)(=O)n2ccc(C(=O)NCc3nc(C)no3)n2)cc1 [Compound 42, 1-(4-methoxybenzene-1-sulfonyl)-N-[(3-methyl-1,2,4-oxadiazol-5-yl)methyl]-1H-pyrazole-3-carboxamide]
  ECdelta5mV: 2000 nM
  Max Delta threshold: 18 mV

## COc1ccc(S(=O)(=O)n2ccc(C(=O)NCc3cnc(C)cn3)n2)c(F)c1 [Compound 68, 1-(2-fluoro-4-methoxy-phenyl)sulfonyl-N-[(5-methylpyrazin-2-yl)methyl]pyrazole-3-carboxamide]
  ECdelta5mV: 2400 nM
  Max Delta threshold: 42 mV

## COc1ccc(S(=O)(=O)n2ccc(C(=O)NCc3ncc(C)o3)n2)cc1 [Compound 36, 1-(4-methoxybenzene-1-sulfonyl)-N-[(5-methyl-1,3-oxazol-2-yl)methyl]-1H-pyrazole-3-carboxamide]
  ECdelta5mV: 1500 nM
  Max Delta threshold: 17 mV

## Cc1ccc(S(=O)(=O)n2ccc(C(=O)NCc3cn(C)cn3)n2)cc1 [Compound 53, 1-(4-methylbenzene-1-sulfonyl)-N-[(1-methyl-1H-imidazol-4-yl)methyl]-1H-pyrazole-3-carboxamide]
  ECdelta5mV: 1900 nM
  Max Delta threshold: 20 mV

## COc1ccc(S(=O)(=O)n2ccc(C(=O)NCc3ncccc3F)n2)cc1 [Compound 86, N-[(3-fluoro-2-pyridyl)methyl]-1-(4-methoxyphenyl)sulfonyl-pyrazole-3-carboxamide]
  ECdelta5mV: 2400 nM
  Max Delta threshold: 19 mV

## Cc1cnc(CNC(=O)c2ccn(S(=O)(=O)c3ccc(C(F)(F)F)cc3)n2)cn1 [Compound 78, N-[(5-methylpyrazin-2-yl)methyl]-1-[4-(trifluoromethyl)phenyl]sulfonyl-pyrazole-3-carboxamide]
  ECdelta5mV: 3000 nM
  Max Delta threshold: 23 mV

## Cc1ccc(S(=O)(=O)n2ccc(C(=O)NCc3ncn(C)n3)n2)cc1 [Compound 60, 1-(4-methylbenzene-1-sulfonyl)-N-[(1-methyl-1H-1,2,4-triazol-3-yl)methyl]-1H-pyrazole-3-carboxamide]
  ECdelta5mV: 2900 nM
  Max Delta threshold: 18 mV

## Cc1cnc(CNC(=O)c2ccn(S(=O)(=O)c3ccc(Cl)cc3F)n2)cn1 [Compound 73, 1-(4-chloro-2-fluoro-phenyl)sulfonyl-N-[(5-methylpyrazin-2-yl)methyl]pyrazole-3-carboxamide]
  ECdelta5mV: 2400 nM
  Max Delta threshold: 33 mV

## Cc1ccc(S(=O)(=O)n2ccc(C(=O)NCc3ccno3)n2)cc1 [Compound 55, 1-(4-methylbenzene-1-sulfonyl)-N-[(1,2-oxazol-5-yl)methyl]-1H-pyrazole-3-carboxamide]
  ECdelta5mV: 1800 nM
  Max Delta threshold: 20 mV

## Cc1ccc(CNC(=O)c2ccn(S(=O)(=O)c3cccc(C)c3)n2)nc1 [Compound 20, 1-(3-methylbenzene-1-sulfonyl)-N-[(5-methylpyridin-2-yl)methyl]-1H-pyrazole-3-carboxamide]
  ECdelta5mV: 3900 nM
  Max Delta threshold: 12 mV

## Cc1ccc(S(=O)(=O)n2ccc(C(=O)NCc3ncc(C)cn3)n2)cc1 [Compound 15, 1-(4-methylbenzene-1-sulfonyl)-N-[(5-methylpyrimidin-2-yl)methyl]-1H-pyrazole-3-carboxamide]
  ECdelta5mV: 2600 nM
  Max Delta threshold: 23 mV

## Cc1cnc(CNC(=O)c2ccn(S(=O)(=O)c3ccc(OC(F)(F)F)cc3)n2)cn1 [Compound 70, N-[(5-methylpyrazin-2-yl)methyl]-1-[4-(trifluoromethoxy)phenyl]sulfonyl-pyrazole-3-carboxamide]
  ECdelta5mV: 4000 nM
  Max Delta threshold: 19 mV

## Cc1ccc(S(=O)(=O)n2ccc(C(=O)NCc3ncon3)n2)cc1 [Compound 57, 1-(4-methylbenzene-1-sulfonyl)-N-[(1,2,4-oxadiazol-3-yl)methyl]-1H-pyrazole-3-carboxamide]
  ECdelta5mV: 4900 nM
  Max Delta threshold: 13 mV

## COc1ccc(S(=O)(=O)n2ccc(C(=O)NCc3ccc(C)cn3)n2)cc1 [Compound 40, 1-(4-methoxybenzene-1-sulfonyl)-N-[(5-methylpyridin-2-yl)methyl]-1H-pyrazole-3-carboxamide]
  ECdelta5mV: 2000 nM
  Max Delta threshold: 21 mV

## Cc1ccc(S(=O)(=O)n2ccc(C(=O)NCc3cncnc3)n2)cc1 [Compound 54, 1-(4-methylbenzene-1-sulfonyl)-N-[(pyrimidin-5-yl)methyl]-1H-pyrazole-3-carboxamide]
  ECdelta5mV: 2400 nM
  Max Delta threshold: 21 mV

## COc1ccc(S(=O)(=O)n2ccc(C(=O)NCc3cocn3)n2)cc1 [Compound 12, 1-(4-methoxybenzene-1-sulfonyl)-N-[(1,3-oxazol-4-yl)methyl]-1H-pyrazole-3-carboxamide]
  ECdelta5mV: 3800 nM
  Max Delta threshold: 16 mV

## Cc1ccc(S(=O)(=O)n2ccc(C(=O)NCc3ccon3)n2)cc1 [Compound 58, 1-(4-methylbenzene-1-sulfonyl)-N-[(1,2-oxazol-3-yl)methyl]-1H-pyrazole-3-carboxamide]
  ECdelta5mV: 2000 nM
  Max Delta threshold: 17 mV

## Cc1noc(CNC(=O)c2ccn(S(=O)(=O)c3ccccc3C)n2)n1 [Compound 23, 1-(2-methylbenzene-1-sulfonyl)-N-[(3-methyl-1,2,4-oxadiazol-5-yl)methyl]-1H-pyrazole-3-carboxamide]
  ECdelta5mV: 5300 nM
  Max Delta threshold: 13 mV

## Cc1cnc(CNC(=O)c2ccn(S(=O)(=O)c3c(C)cc(F)cc3C)n2)cn1 [Compound 83, 1-(4-fluoro-2,6-dimethyl-phenyl)sulfonyl-N-[(5-methylpyrazin-2-yl)methyl]pyrazole-3-carboxamide]
  ECdelta5mV: 2700 nM
  Max Delta threshold: 21 mV

## Cc1ccc(S(=O)(=O)n2ccc(C(=O)NCc3ccn(C)n3)n2)cc1 [Compound 39, 1-(4-methylbenzene-1-sulfonyl)-N-[(1-methyl-1H-pyrazol-3-yl)methyl]-1H-pyrazole-3-carboxamide]
  ECdelta5mV: 1600 nM
  Max Delta threshold: 21 mV
